Test results as given in the NIST ThermoML archive (doi:10.1021/je700699u).
Numbers after ± are expanded uncertainties.

Experiment: cn = amount concentration of the nth substance listed, in mol/dm3
Conditions: 101 kPa, Liquid

N[C@@H](CCC(=O)O)C(=O)[O-].[K+] [potassium (S)-2-amino-4-carboxybutanoate] + O
Conditions	mass density, 298.15 K [kg/m3]	mass density, 303.15 K [kg/m3]	mass density, 313.15 K [kg/m3]	mass density, 323.15 K [kg/m3]	mass density, 333.15 K [kg/m3]	viscosity, 298.15 K [mPa·s]	viscosity, 303.15 K [mPa·s]	viscosity, 313.15 K [mPa·s]	viscosity, 323.15 K [mPa·s]	viscosity, 333.15 K [mPa·s]
c1 = 0.248	1029 ± 2	1027 ± 2	1024 ± 2	1019 ± 2	1017 ± 2	1.011 ± 0.032	0.908 ± 0.029	0.744 ± 0.025	0.623 ± 0.021	0.535 ± 0.019
c1 = 0.493	1059 ± 2	1057 ± 2	1054 ± 2	1049 ± 2	1047 ± 2	1.163 ± 0.036	1.041 ± 0.033	0.854 ± 0.028	0.713 ± 0.024	0.611 ± 0.021
c1 = 0.733	1088 ± 3	1086 ± 3	1083 ± 3	1078 ± 3	1076 ± 3	1.344 ± 0.042	1.199 ± 0.037	0.982 ± 0.031	0.817 ± 0.027	0.699 ± 0.024
c1 = 1	1117 ± 3	1116 ± 3	1112 ± 3	1107 ± 3	1105 ± 3	1.579 ± 0.048	1.404 ± 0.043	1.143 ± 0.036	0.953 ± 0.031	0.809 ± 0.027
c1 = 1.24	1145 ± 4	1143 ± 4	1139 ± 4	1134 ± 4	1132 ± 4	1.844 ± 0.055	1.644 ± 0.05	1.336 ± 0.041	1.101 ± 0.035	0.933 ± 0.03
c1 = 1.469	1173 ± 4	1171 ± 4	1167 ± 4	1162 ± 4	1160 ± 4	2.194 ± 0.065	1.962 ± 0.059	1.57 ± 0.048	1.295 ± 0.04	1.089 ± 0.034

N=C(N)NCCC[C@H](N)C(=O)[O-].[K+] [potassium L-argininate] + O
Conditions	mass density, 298.15 K [kg/m3]	mass density, 303.15 K [kg/m3]	mass density, 313.15 K [kg/m3]	mass density, 323.15 K [kg/m3]	mass density, 333.15 K [kg/m3]	viscosity, 298.15 K [mPa·s]	viscosity, 303.15 K [mPa·s]	viscosity, 313.15 K [mPa·s]	viscosity, 323.15 K [mPa·s]	viscosity, 333.15 K [mPa·s]
c1 = 0.238	1021 ± 2	1019 ± 2	1016 ± 2	1011 ± 2	1007 ± 2	1.026 ± 0.033	0.917 ± 0.03	0.75 ± 0.025	0.63 ± 0.022	0.539 ± 0.019
c1 = 0.479	1043 ± 2	1041 ± 2	1037 ± 2	1032 ± 2	1027 ± 2	1.215 ± 0.038	1.098 ± 0.035	0.886 ± 0.029	0.738 ± 0.025	0.632 ± 0.022
c1 = 0.725	1064 ± 2	1062 ± 2	1058 ± 2	1053 ± 2	1048 ± 2	1.431 ± 0.044	1.276 ± 0.04	1.035 ± 0.033	0.856 ± 0.028	0.723 ± 0.024
c1 = 0.971	1087 ± 3	1085 ± 3	1080 ± 3	1075 ± 3	1069 ± 3	1.882 ± 0.057	1.553 ± 0.047	1.244 ± 0.039	1.019 ± 0.033	0.848 ± 0.028

N[C@@H](CC(=O)O)C(=O)[O-].[K+] [potassium (S)-2-amino-3-carboxypropanoate] + O
Conditions	mass density, 298.15 K [kg/m3]	mass density, 303.15 K [kg/m3]	mass density, 313.15 K [kg/m3]	mass density, 323.15 K [kg/m3]	mass density, 333.15 K [kg/m3]	viscosity, 298.15 K [mPa·s]	viscosity, 303.15 K [mPa·s]	viscosity, 313.15 K [mPa·s]	viscosity, 323.15 K [mPa·s]	viscosity, 333.15 K [mPa·s]
c1 = 0.255	1029 ± 2	1027 ± 2	1024 ± 2	1020 ± 2	1015 ± 2	0.992 ± 0.032	0.887 ± 0.029	0.725 ± 0.024	0.613 ± 0.021	0.525 ± 0.019
c1 = 0.47	1059 ± 2	1057 ± 2	1053 ± 2	1049 ± 2	1045 ± 2	1.104 ± 0.035	0.998 ± 0.032	0.816 ± 0.027	0.693 ± 0.023	0.593 ± 0.021
c1 = 0.708	1089 ± 3	1087 ± 3	1083 ± 3	1079 ± 3	1074 ± 3	1.239 ± 0.039	1.115 ± 0.035	0.914 ± 0.03	0.771 ± 0.026	0.663 ± 0.023
c1 = 0.979	1119 ± 3	1117 ± 3	1113 ± 3	1109 ± 3	1105 ± 3	1.419 ± 0.044	1.269 ± 0.039	1.041 ± 0.033	0.865 ± 0.028	0.743 ± 0.025
c1 = 1.208	1147 ± 4	1145 ± 4	1141 ± 4	1137 ± 4	1133 ± 4	1.615 ± 0.049	1.45 ± 0.044	1.185 ± 0.037	0.994 ± 0.032	0.836 ± 0.027
c1 = 1.449	1176 ± 4	1173 ± 4	1169 ± 4	1166 ± 4	1162 ± 4	1.856 ± 0.056	1.667 ± 0.051	1.353 ± 0.042	1.142 ± 0.036	0.957 ± 0.031

N[C@@H](Cc1ccccc1)C(=O)[O-].[K+] [potassium L-phenylalaninate] + O
Conditions	mass density, 298.15 K [kg/m3]	mass density, 303.15 K [kg/m3]	mass density, 313.15 K [kg/m3]	mass density, 323.15 K [kg/m3]	mass density, 333.15 K [kg/m3]	viscosity, 298.15 K [mPa·s]	viscosity, 303.15 K [mPa·s]	viscosity, 313.15 K [mPa·s]	viscosity, 323.15 K [mPa·s]	viscosity, 333.15 K [mPa·s]
c1 = 0.25	1015 ± 2	1014 ± 2	1010 ± 2	1005 ± 1	1001 ± 1	1.059 ± 0.034	0.938 ± 0.03	0.769 ± 0.025	0.641 ± 0.022	0.549 ± 0.019
c1 = 0.496	1032 ± 2	1031 ± 2	1027 ± 2	1022 ± 2	1017 ± 2	1.224 ± 0.038	1.092 ± 0.034	0.884 ± 0.029	0.738 ± 0.025	0.631 ± 0.022
c1 = 0.745	1051 ± 2	1049 ± 2	1044 ± 2	1039 ± 2	1034 ± 2	–	–	–	–	–
c1 = 0.746	–	–	–	–	–	1.441 ± 0.044	1.279 ± 0.04	1.032 ± 0.033	0.852 ± 0.028	0.72 ± 0.024
c1 = 0.996	1067 ± 2	1065 ± 2	1060 ± 2	1055 ± 2	1049 ± 2	1.695 ± 0.051	1.495 ± 0.046	1.194 ± 0.037	0.98 ± 0.031	0.823 ± 0.027
c1 = 1.226	1084 ± 3	1081 ± 3	1077 ± 3	1071 ± 3	1066 ± 2	–	–	–	–	–
c1 = 1.227	–	–	–	–	–	2.03 ± 0.061	1.782 ± 0.054	1.41 ± 0.043	1.15 ± 0.036	0.963 ± 0.031
c1 = 1.453	1100 ± 3	1097 ± 3	1092 ± 3	1087 ± 3	1081 ± 3	2.483 ± 0.073	2.169 ± 0.064	1.702 ± 0.052	1.377 ± 0.043	1.139 ± 0.036

O=C([O-])[C@@H]1CCCN1.[K+] [potassium L-prolinate] + O
Conditions	mass density, 298.15 K [kg/m3]	mass density, 303.15 K [kg/m3]	mass density, 313.15 K [kg/m3]	mass density, 323.15 K [kg/m3]	mass density, 333.15 K [kg/m3]	viscosity, 298.15 K [mPa·s]	viscosity, 303.15 K [mPa·s]	viscosity, 313.15 K [mPa·s]	viscosity, 323.15 K [mPa·s]	viscosity, 333.15 K [mPa·s]
c1 = 0.507	1028 ± 2	1027 ± 2	1023 ± 2	1019 ± 2	1014 ± 2	1.107 ± 0.035	0.986 ± 0.032	0.799 ± 0.026	0.664 ± 0.023	0.565 ± 0.02
c1 = 1.01	1059 ± 2	1057 ± 2	1053 ± 2	1048 ± 2	1043 ± 2	1.4 ± 0.043	1.242 ± 0.039	0.992 ± 0.032	0.816 ± 0.027	0.685 ± 0.023
c1 = 1.523	1089 ± 3	1087 ± 3	1082 ± 3	1077 ± 3	1072 ± 3	1.811 ± 0.055	1.59 ± 0.048	1.251 ± 0.039	1.017 ± 0.032	0.846 ± 0.028
c1 = 2.01	1118 ± 3	1115 ± 3	1110 ± 3	1105 ± 3	1100 ± 3	2.365 ± 0.07	2.061 ± 0.062	1.599 ± 0.049	1.286 ± 0.04	1.061 ± 0.034
c1 = 2.521	1146 ± 4	1144 ± 4	1138 ± 4	1133 ± 4	1127 ± 4	3.163 ± 0.092	2.721 ± 0.08	2.076 ± 0.062	1.636 ± 0.05	1.331 ± 0.041
c1 = 2.983	1171 ± 4	1168 ± 4	1162 ± 4	1156 ± 4	1150 ± 4	4.112 ± 0.12	3.516 ± 0.1	2.664 ± 0.078	2.068 ± 0.062	1.658 ± 0.05
c1 = 3.448	1197 ± 5	1194 ± 5	1188 ± 5	1182 ± 4	1176 ± 4	5.732 ± 0.16	4.837 ± 0.14	3.587 ± 0.1	2.767 ± 0.081	2.181 ± 0.065

NCCC(=O)[O-].[K+] [potassium Salt of B-alanine] + O
Conditions	mass density, 298.15 K [kg/m3]	mass density, 303.15 K [kg/m3]	mass density, 313.15 K [kg/m3]	mass density, 323.15 K [kg/m3]	mass density, 333.15 K [kg/m3]	viscosity, 298.15 K [mPa·s]	viscosity, 303.15 K [mPa·s]	viscosity, 313.15 K [mPa·s]	viscosity, 323.15 K [mPa·s]	viscosity, 333.15 K [mPa·s]
c1 = 0.496	1026 ± 2	1024 ± 2	1020 ± 2	1017 ± 2	1011 ± 2	1.05 ± 0.033	0.944 ± 0.03	0.762 ± 0.025	0.638 ± 0.022	0.546 ± 0.019
c1 = 1.003	1053 ± 2	1053 ± 2	1048 ± 2	1043 ± 2	1038 ± 2	1.23 ± 0.038	1.097 ± 0.035	0.892 ± 0.029	0.744 ± 0.025	0.634 ± 0.022
c1 = 1.492	1079 ± 3	1078 ± 3	1074 ± 3	1070 ± 3	1065 ± 2	1.453 ± 0.045	1.293 ± 0.04	1.049 ± 0.033	0.871 ± 0.028	0.737 ± 0.025
c1 = 2.019	1107 ± 3	1106 ± 3	1100 ± 3	1096 ± 3	1090 ± 3	1.759 ± 0.053	1.548 ± 0.047	1.25 ± 0.039	1.027 ± 0.033	0.866 ± 0.028
c1 = 2.492	1133 ± 4	1131 ± 4	1126 ± 3	1121 ± 3	1116 ± 3	2.131 ± 0.063	1.881 ± 0.057	1.497 ± 0.046	1.223 ± 0.038	1.022 ± 0.033
c1 = 2.964	1157 ± 4	1155 ± 4	1150 ± 4	1145 ± 4	1140 ± 4	2.609 ± 0.077	2.293 ± 0.068	1.808 ± 0.055	1.464 ± 0.045	1.217 ± 0.038
c1 = 3.417	1181 ± 4	1179 ± 4	1174 ± 4	1169 ± 4	1162 ± 4	3.245 ± 0.094	2.832 ± 0.083	2.209 ± 0.066	1.77 ± 0.054	1.459 ± 0.045
